Results published in patent US11497752B2, “Compounds and uses thereof” (Foghorn Therapeutics Inc., priority 2018, dated 2022).

Legend:
BRG-1 = BRG-1 (Homo sapiens, UniProt P51532); experiment: ATPase catalytic activity of BRG-1 (ADP-Glo in vitro biochemical assay)
BRM = BRM (Homo sapiens, UniProt P51531); experiment: ATPase catalytic activity of BRM (ADP-Glo in vitro biochemical assay)
Sequence of BRM (P51531 whole entry): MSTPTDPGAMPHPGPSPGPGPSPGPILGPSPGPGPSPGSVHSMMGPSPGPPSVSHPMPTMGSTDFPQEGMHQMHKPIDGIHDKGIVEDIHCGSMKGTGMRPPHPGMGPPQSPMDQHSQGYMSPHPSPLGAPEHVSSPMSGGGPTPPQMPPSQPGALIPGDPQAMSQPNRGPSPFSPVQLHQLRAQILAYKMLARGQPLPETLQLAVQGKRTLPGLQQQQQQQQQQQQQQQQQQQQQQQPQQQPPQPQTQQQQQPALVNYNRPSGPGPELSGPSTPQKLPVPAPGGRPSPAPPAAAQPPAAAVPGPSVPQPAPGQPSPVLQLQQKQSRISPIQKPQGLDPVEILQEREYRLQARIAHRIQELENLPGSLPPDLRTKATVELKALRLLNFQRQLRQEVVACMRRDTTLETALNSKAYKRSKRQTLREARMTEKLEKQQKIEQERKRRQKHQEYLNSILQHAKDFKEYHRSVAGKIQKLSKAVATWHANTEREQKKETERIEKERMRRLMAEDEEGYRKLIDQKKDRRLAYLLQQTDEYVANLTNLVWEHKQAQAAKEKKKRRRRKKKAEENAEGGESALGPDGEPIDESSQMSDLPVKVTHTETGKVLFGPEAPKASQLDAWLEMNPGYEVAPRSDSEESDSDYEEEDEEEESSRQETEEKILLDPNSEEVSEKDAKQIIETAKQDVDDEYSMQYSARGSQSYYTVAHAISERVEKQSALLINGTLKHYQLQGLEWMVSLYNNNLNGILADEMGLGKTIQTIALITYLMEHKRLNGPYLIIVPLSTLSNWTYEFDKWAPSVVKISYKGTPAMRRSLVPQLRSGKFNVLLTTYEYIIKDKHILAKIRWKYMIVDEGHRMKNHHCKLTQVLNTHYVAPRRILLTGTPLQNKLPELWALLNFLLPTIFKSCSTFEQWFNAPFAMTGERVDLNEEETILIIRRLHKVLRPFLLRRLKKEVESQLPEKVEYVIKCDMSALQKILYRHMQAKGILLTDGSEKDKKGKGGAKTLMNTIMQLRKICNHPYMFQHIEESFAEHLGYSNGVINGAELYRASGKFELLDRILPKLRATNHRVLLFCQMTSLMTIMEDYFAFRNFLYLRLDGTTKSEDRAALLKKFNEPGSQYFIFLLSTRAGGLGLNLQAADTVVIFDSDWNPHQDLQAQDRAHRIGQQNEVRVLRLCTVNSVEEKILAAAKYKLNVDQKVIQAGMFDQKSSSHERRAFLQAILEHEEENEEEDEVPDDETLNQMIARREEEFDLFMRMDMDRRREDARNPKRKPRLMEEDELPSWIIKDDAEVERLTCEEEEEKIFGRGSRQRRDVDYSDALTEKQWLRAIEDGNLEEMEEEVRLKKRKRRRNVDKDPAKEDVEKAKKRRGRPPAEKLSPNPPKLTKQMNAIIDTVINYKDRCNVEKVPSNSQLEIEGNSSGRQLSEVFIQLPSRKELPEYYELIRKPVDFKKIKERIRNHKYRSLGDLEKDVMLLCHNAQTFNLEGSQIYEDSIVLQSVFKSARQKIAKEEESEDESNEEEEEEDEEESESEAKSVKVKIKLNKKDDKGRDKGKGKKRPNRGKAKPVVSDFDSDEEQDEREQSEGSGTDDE

Sequence of BRG-1 (P51532 whole entry): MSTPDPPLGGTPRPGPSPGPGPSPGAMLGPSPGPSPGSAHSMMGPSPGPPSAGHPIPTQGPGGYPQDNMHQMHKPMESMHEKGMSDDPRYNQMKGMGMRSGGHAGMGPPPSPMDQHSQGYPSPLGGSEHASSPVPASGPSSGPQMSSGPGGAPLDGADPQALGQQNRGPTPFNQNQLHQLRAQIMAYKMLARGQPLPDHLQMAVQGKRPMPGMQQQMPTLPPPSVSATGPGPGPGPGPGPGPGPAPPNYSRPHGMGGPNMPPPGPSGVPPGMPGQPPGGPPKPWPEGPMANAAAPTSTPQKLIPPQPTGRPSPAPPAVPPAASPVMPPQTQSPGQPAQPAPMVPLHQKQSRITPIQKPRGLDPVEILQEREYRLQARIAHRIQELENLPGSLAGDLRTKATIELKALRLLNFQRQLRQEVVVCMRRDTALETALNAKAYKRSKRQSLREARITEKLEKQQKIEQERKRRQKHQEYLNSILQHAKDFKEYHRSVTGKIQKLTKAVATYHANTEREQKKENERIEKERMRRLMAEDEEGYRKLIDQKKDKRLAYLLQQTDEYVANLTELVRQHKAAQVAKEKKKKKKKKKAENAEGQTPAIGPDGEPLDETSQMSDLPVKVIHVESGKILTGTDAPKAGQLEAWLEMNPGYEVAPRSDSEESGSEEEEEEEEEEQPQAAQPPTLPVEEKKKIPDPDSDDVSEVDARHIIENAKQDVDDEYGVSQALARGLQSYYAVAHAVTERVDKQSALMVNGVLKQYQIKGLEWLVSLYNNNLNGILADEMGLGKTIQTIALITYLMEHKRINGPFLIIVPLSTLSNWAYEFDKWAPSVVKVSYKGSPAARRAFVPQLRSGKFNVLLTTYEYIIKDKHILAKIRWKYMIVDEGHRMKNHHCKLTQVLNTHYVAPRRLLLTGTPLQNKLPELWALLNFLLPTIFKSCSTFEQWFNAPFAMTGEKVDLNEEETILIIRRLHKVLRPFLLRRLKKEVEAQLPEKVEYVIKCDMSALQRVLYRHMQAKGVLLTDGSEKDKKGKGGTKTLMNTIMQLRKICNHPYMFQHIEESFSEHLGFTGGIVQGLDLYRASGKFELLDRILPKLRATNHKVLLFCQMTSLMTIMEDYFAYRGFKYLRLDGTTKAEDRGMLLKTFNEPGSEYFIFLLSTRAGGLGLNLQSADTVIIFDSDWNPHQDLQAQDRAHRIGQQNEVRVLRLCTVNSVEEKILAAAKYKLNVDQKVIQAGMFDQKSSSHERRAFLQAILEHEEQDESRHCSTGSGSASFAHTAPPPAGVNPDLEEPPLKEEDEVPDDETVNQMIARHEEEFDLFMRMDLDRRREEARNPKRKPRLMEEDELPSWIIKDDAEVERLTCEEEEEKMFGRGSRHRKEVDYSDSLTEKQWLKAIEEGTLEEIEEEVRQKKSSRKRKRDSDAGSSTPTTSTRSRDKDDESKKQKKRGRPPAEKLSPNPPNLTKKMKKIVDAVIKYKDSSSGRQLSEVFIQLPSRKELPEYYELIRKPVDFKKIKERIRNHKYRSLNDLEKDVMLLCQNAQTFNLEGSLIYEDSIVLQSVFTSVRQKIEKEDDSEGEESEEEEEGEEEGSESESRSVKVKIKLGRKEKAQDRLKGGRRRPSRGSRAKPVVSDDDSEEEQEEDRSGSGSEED

SMILES | IC50 (BRG-1) [µM] | BRG1 Max % Inhibition (BRG-1; Table 5) [%] | IC50 (BRM) [µM] | BRM Max % Inhibition (BRM; Table 5) [%] | BRG1 Max % Inhibition (BRG-1; Table 6) | BRM Max % Inhibition (BRM; Table 6) [%]
CSCC[C@H](NC(=O)c1ccc(CO)cc1)C(=O)Nc1nc(-c2ccccc2)cs1 [Compound 85, 4-(hydroxymethyl)-N-[(1S)-3-methylsulfanyl-1-[(4-phenylthiazol-2-yl)carbamoyl]propyl]benzamide] | 1 to 10 | >90 | 1 to 10 | >95 | – | –
CS(=O)(=O)c1ccnc(C(=O)NCC(=O)Nc2nc(-c3cccc(-c4ccncc4)c3)cs2)c1 [Compound 104, 4-methylsulfonyl-N-[2-oxo-2-[[4-[3-(4-pyridyl)phenyl]thiazol-2-yl]amino]ethyl]pyridine-2-carboxamide] | < 0.1 | – | < 0.1 | – | >60% | >70
NCCNc1cc(-c2cccc(-c3csc(NC(=O)CNC(=O)c4ccc(N)cc4)n3)c2)ccn1 [Compound 160, 4-amino-N-(2-((4-(3-(2-((2-aminoethyl)amino)pyridin-4-yl)phenyl)thiazol-2-yl)amino)-2-oxoethyl)benzamide] | 0.1 to 1 | – | 0.1 to 1 | – | >95%, | >95
CSCC[C@H](NC(=O)c1ccc(C(F)(F)F)cc1)C(=O)Nc1nc(-c2ccccc2)cs1 [Compound 68] | > 10 | – | > 10 | – | – | –
CN(C)S(=O)(=O)c1cccc(C(=O)NCC(=O)Nc2nc(-c3cccc(C(=O)O)c3)cs2)c1 [Compound 33, 3-[2-[[2-[[3-(dimethylsulfamoyl)benzoyl]amino]acetyl]amino]thiazol-4-yl]benzoic acid] | > 10 | >80 | > 10 | >80 | – | –
O=C(CNC(=O)c1cccc(S(=O)(=O)C2CC2)c1)Nc1nc(-c2ccccc2)cs1 [Compound 39, 3-cyclopropylsulfonyl-N-[2-oxo-2-[(4-phenylthiazol-2-yl)amino]ethyl]benzamide] | > 10 | <30 | > 10 | >30 | – | –
CSCC[C@H](NC(=O)c1ccc(CN(C)C)cc1)C(=O)Nc1nc(-c2ccccc2)cs1 [Compound 60, 4-[(dimethylamino)methyl]-N-[(1S)-3-methylsulfanyl-1-[(4-phenylthiazol-2-yl)carbamoyl]propyl]benzamide] | > 10 | >80 | > 10 | >90 | – | –
Nc1ccc(C(=O)NCC(=O)Nc2nc(-c3cccc(-c4cccc(C(=O)O)c4)c3)cs2)cc1 [Compound 136, 3′-(2-(2-(4-aminobenzamido)acetamido)thiazol-4-yl)-[1,1′-biphenyl]-3-carboxylic acid] | 0.1 to 1 | – | 0.1 to 1 | – | >95% | >95
Cc1ccccc1-c1csc(NC(=O)CNC(=O)c2cccc(S(=O)(=O)N(C)C)c2)n1 [Compound 16, 3-(dimethylsulfamoyl)-N-[2-[[4-(o-tolyl)thiazol-2-yl]amino]-2-oxo-ethyl]benzamide] | > 10 | >60 | 1 to 10 | >80 | – | –
CNC(=O)c1ccc(-c2cccc(-c3csc(NC(=O)CNC(=O)c4ccc(N)cc4)n3)c2)cc1 [Compound 130, 3′-(2-(2-(4-aminobenzamido)acetamido)thiazol-4-yl)-N-methyl-[1,1′-biphenyl]-4-carboxamide] | 1 to 10 | – | 0.1 to 1 | – | >70% | >70
NCCOc1cc(-c2cccc(-c3csc(NC(=O)CNC(=O)c4ccc(N)cc4)n3)c2)ccn1 [Compound 163, 4-amino-N-(2-((4-(3-(2-(2-aminoethoxy)pyridin-4-yl)phenyl)thiazol-2-yl)amino)-2-oxoethyl)benzamide] | 0.1 to 1 | – | < 0.1 | – | >95% | >95
Cn1ccc2ccc(-c3csc(NC(=O)CNC(=O)c4ccc(N)cc4)n3)cc2c1=O [Compound 143, 4-amino-N-(2-((4-(2-methyl-1-oxo-1,2-dihydroisoquinolin-7-yl)thiazol-2-yl)amino)-2-oxoethyl)benzamide] | < 0.1 | – | < 0.1 | – | >95% | >95
CC(C)(C)c1cccc(C(=O)NCC(=O)Nc2nc(-c3ccccc3)cs2)c1 [Compound 65, 3-(tert-butyl)-N-(2-oxo-2-((4-phenylthiazol-2-yl)amino)ethyl)benzamide] | 1 to 10 | >30 | 1 to 10 | >70 | – | –
CS(=O)(=O)c1cccc(C(=O)NCC(=O)Nc2nc(-c3ccccc3)cs2)c1 [Compound 23, 3-methylsulfonyl-N-[2-oxo-2-[(4-phenylthiazol-2-yl)amino]ethyl]benzamide] | 1 to 10 | >50 | 1 to 10 | >70 | – | –
Nc1ccc(C(=O)N[C@@H](CO)C(=O)Nc2nc(-c3cccc(-c4ccncc4)c3)cs2)cc1 [Compound 172, (S)-4-amino-N-(3-hydroxy-1-oxo-1-((4-(3-(pyridin-4-yl)phenyl)thiazol-2-yl)amino)propan-2-yl)benzamide] | 0.1 to 1 | – | 0.1 to 1 | – | >90% | >95
CO[C@H]1CCCN(c2cccc(-c3csc(NC(=O)CNC(=O)c4ccc(N)cc4)n3)c2)C1 [Compound 238, 4-amino-N-[2-[[4-[3-[(3S)-3-methoxy-1-piperidyl]phenyl]thiazol-2-yl]amino]-2-oxo-ethyl]benzamide] | 0.1 to 1 | – | 0.1 to 1 | – | >95% | >90
COC(=O)N1CCC[C@H](c2csc(NC(=O)CNC(=O)c3ccc(N)cc3)n2)C1 [Compound 122, (S)-methyl 3-(2-(2-(4-aminobenzamido)acetamido)thiazol-4-yl)piperidine-1-carboxylate] | 1 to 10 | – | 0.1 to 1 | – | >90% | >95
Nc1cnc(C(=O)NCC(=O)Nc2nc(-c3cccc(-c4ccncc4)c3)cs2)nc1 [Compound 193, 5-amino-N-[2-oxo-2-[[4-[3-(4-pyridyl)phenyl]thiazol-2-yl]amino]ethyl]pyrimidine-2-carboxamide] | 0.1 to 1 | – | 0.1 to 1 | – | >90% | >80
NS(=O)(=O)c1cccc(C(=O)NCC(=O)Nc2nc(-c3ccccc3)cs2)c1 [Compound 28, N-(2-oxo-2-((4-phenylthiazol-2-yl)amino)ethyl)-3-sulfamoylbenzamide] | 1 to 10 | >30 | 1 to 10 | >50 | – | –
CS(=O)(=O)c1cccc(C(=O)NCC(=O)Nc2nc(-c3cccc(-c4nccs4)c3)cs2)c1 [Compound 98, 3-(methylsulfonyl)-N-(2-oxo-2-((4-(3-(thiazol-2-yl)phenyl)thiazol-2-yl)amino)ethyl)benzamide] | 0.1 to 1 | – | 0.1 to 1 | – | >70% | >90
